Source: US8383624B2 (Abbott Laboratories, priority 2009, dated 2013)

molecular target: T1, Cdc7 (BEV coexpressed huCDC7/DBF4) (Homo sapiens, UniProt O00311); test: Cdc7 enzyme inhibition assay ([33P]-ATP, biotinylated peptide substrate, FlashPlate); format: biochemical; details: Table 1; Ki from IC50 assuming ATP-competitive inhibition, apparent ATP Km 0.7 μM, 1 μM ATP
T1 construct: made in house; host or cells: baculovirus expression vector (BEV) system
Method: Cdc7 (BEV coexpressed huCDC7/DBF4) is prepared internally. Cdc7 assays are conducted as follows with final concentrations as listed. In 384-well v-bottom polypropylene plates, 6 L compound (2% DMSO), is mixed with 6 µL of Cdc7 (2 μg/mL), and Jerini peptide substrate A-All (biotin-C6linker-TPSDSLIYDDGLS) (2 μM), followed by immediate initiation with 6 L […] (1 μM, 20 mCi/μmol) using a reaction buffer comprising 25 mM HEPES, pH 7.5, 1 mM DTT, 10 mM MgCl2, 100 μM Na3VO4, 0.075 mg/ml Triton X-100. Reactions are quenched after 1 hr by the addition of 90 L stop buffer (50 mM EDTA, 2M NaCl). 85 μL of the stopped reactions are transferred to 384-well streptavidin-coated plates (FlashPlate Plus, Perkin Elmer), incubated 30 minutes at room temperature and washed 3 times with 0.05% Tween-20/PBS using an ELX-405 automated plate washer (BioTek), and counted on a TopCount Scintillation Plate Reader (Packard). IC50 values are determined via non-linear regression fitting of enzyme inhibition data and corresponding Ki values are generated assuming ATP-competitive (equilibrium) inhibition and using the experimentally determined apparent ATP Km of 0.7 μM (as determined using the above assay condition, but varying ATP). Table 1 depicts enzyme inhibition data (Ki) for exemplary compounds. In Table 1, “A” represents a Ki of less than 10 nM, “B” represents a Ki of between 10 nM and 100 nM, and “C” represents a Ki of greater than 100 nM.
Table 2 depicts enzyme inhibition data (Ki) for examples 27-43 using the same assay as example 26. In Table 2, “A” represents a Ki of less than 10 nM, “B” represents a Ki of between 10 nM and 100 nM, and “C” represents a Ki of greater than 100 nM.

T1 sequence (O00311 whole entry): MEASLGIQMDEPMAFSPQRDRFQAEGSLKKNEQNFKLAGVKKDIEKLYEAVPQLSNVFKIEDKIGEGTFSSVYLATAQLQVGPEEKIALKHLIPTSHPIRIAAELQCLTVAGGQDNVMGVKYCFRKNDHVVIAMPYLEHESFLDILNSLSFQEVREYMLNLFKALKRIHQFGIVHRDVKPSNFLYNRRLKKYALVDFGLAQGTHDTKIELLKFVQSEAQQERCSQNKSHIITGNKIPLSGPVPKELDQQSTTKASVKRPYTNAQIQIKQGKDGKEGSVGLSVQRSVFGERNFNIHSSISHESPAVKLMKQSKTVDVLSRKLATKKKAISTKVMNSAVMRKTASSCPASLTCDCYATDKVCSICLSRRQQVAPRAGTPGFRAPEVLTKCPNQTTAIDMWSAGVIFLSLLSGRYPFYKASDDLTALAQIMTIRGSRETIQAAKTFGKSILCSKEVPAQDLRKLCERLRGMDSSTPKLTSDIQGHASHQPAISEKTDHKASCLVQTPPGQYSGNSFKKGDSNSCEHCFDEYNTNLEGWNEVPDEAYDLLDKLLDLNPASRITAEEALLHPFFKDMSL
T1 sequence (Q9UBU7 whole entry partner): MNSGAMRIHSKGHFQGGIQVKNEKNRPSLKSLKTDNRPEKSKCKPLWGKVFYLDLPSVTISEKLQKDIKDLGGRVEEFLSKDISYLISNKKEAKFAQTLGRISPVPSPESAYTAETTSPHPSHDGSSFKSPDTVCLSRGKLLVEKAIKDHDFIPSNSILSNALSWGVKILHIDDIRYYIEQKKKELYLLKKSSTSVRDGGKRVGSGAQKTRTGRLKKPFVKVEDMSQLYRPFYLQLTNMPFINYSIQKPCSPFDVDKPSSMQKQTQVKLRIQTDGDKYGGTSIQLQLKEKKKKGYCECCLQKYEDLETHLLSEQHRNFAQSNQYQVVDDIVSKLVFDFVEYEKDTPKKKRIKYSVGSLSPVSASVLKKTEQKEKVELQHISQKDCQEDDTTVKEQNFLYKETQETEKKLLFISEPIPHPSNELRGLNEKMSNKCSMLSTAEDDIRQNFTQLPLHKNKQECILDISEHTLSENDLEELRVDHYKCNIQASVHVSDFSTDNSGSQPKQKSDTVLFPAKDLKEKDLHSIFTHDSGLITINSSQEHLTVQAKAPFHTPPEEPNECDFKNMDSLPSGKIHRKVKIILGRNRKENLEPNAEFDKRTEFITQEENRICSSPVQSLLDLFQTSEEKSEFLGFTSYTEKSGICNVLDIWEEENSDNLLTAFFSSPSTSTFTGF

| Compound | Ki [nM] |
| --- | --- |
| O=C(NC1CCCC(Nc2cc(-c3c[nH]c4nccnc34)cc(Cl)n2)C1)C1CC1 (centres unmarked) [Example 11, N-(3-(6-chloro-4-(5H-pyrrolo[2,3-b]pyrazin-7-yl)pyridin-2-ylamino)cyclohexyl)cyclopropanecarboxamide] | < 10 |
| CCCCC(=O)Nc1cc(-c2c[nH]c3nccnc23)cc(Cl)n1 [Example 14, N-(6-chloro-4-(5H-pyrrolo[2,3-b]pyrazin-7-yl)pyridin-2-yl)pentanamide] | < 10 |
| CC(C)(CN)CNc1cc(-c2c[nH]c3nccnc23)cc(Cl)n1 [Example 19, N^1-(6-chloro-4-(5H-pyrrolo[2,3-b]pyrazin-7-yl)pyridin-2-yl)-2,2-dimethylpropane-1,3-diamine] | < 10 |

Continued, values first:

| Ki [nM] | Compound |
| --- | --- |
| < 10 | CN(C)[C@H]1CC[C@H](Nc2cc(-c3c[nH]c4nccnc34)cc(Cl)n2)CC1 [Example 9, trans-N^1-(6-chloro-4-(5H-pyrrolo[2,3-b]pyrazin-7-yl)pyridin-2-yl)-N^4,N^4-dimethylcyclohexane-1,4-diamine] |
| < 10 | CCN1CCCC(Nc2cc(-c3c[nH]c4nccnc34)cc(Cl)n2)C1 (centres unmarked) [Example 4, 6-chloro-N-(1-ethylpiperidin-3-yl)-4-(5H-pyrrolo[2,3-b]pyrazin-7-yl)pyridin-2-amine] |
| < 10 | N[C@H]1CC[C@H](Nc2cc(-c3c[nH]c4nccnc34)cc(Cl)n2)CC1 [Example 7, Trans N^1-(6-chloro-4-(5H-pyrrolo[2,3-b]pyrazin-7-yl)pyridin-2-yl)cyclohexane-1,4-diamine] |

same assay, conditions: Table 2; same assay as example 26

| Ki [nM] | Compound |
| --- | --- |
| 10 to 100 | Clc1cc(-c2c[nH]c3ncc(NCCCc4ccccc4)nc23)cc(NC2CCCCC2)n1 [Example 40, 7-[2-chloro-6-(cyclohexylamino)pyridin-4-yl]-N-(3-phenylpropyl)-5H-pyrrolo[2,3-b]pyrazin-2-amine] |
| < 10 | O=C(O)c1cnc2[nH]cc(-c3cc(Cl)nc(NC4CCCCC4)c3)c2n1 [Example 36, 7-[2-chloro-6-(cyclohexylamino)pyridin-4-yl]-5H-pyrrolo[2,3-b]pyrazine-2-carboxylic acid] |
